Measured values reported in patent publication US20120128630A1, “1-(6 MEMBERS AZO-HETEROCYCLIC)-PYRROLIN-2-ONE COMPOUNDS AS INHIBITORS OF HEPATITIS C NS5B POLYMERASE, THE PHARAMACEUTICAL COMPOSITION THEREOF AND THEIR THERAPEUTIC USE” (priority 2009, published 2012).

molecular target: T1, HCV NS5B genotype 1b (Hepatitis C virus genotype 1b, UniProt Q9WMX2); assay: 3D-SCREEN assay (NS5B 3D-Screen platform, luciferase reporter gene); type: cell-based; conditions: EC50_3DS_NS5B, Table 1, 3D-SCREEN assay results; Huh-7 cells, 24 hours with compound, firefly luciferase reporter
T1 construct: The protein was expressed with a 21 amino acid C-terminal deletion to remove transmembrane domain; expressed in transfected cells; host or cells: Huh-7
Description: cDNA encoding HCV NS5B genotype 1b, was cloned in frame with Gal4-DNA Binding Domain. The protein was expressed with a 21 amino acid C-terminal deletion to remove transmembrane domain. Expression of NS5BΔ21/Gal4 DBD fusion protein was under control of SV40 early promoter. 3D-Sensor peptide was cloned in frame with VP16 activation domain. Expression of 3D-Sensor/VP16 AD fusion protein was under control of CMV promoter. Expression of the firefly luciferase reporter gene was inducible by the [Target protein/conformation sensitive peptide/VP16AD] complex.
It is a single-target, cell based assay. Briefly, expression of a reporter gene depends on the interaction of a short peptide, thereafter named 3D-Sensor, and native conformation of the target protein. Whenever the conformation of the target protein is modified, interaction between 3D-sensor and target protein is disrupted and reporter gene is not expressed anymore. Conformation modifiers are identified by loss of expression of reporter gene. NS5B 3D-Screen platform was generated in Huh-7 cell lines by transient transfection of three expression vectors encoding respectively
(i) HCV NS5BΔ21/Gal4-DBD fusion protein
(ii) the 3D-sensor peptide I4/VP16 fusion protein
(iii) the firefly luciferase reporter gene
Huh-7 cells were dissociated the day before transfection and seeded in T175 flasks at a density of 10^7 cells in 30 ml culture medium. Equimolar ratios of vectors were transfected in cell according to optimized jetPEI transfection protocol (PolyPlus Transfection, Illkirch, France) and 10 μg total DNA/10^6 cells. Transfection was performed for 2 hours at 37° C. and 5% CO2 in a humidified atmosphere. After two hours cells were dissociated and seeded in 96 wells plates at a density of 25,000 cells per well and 90 μl culture medium. 10 μl of compounds to be tested were added 2 hours after seeding. Final concentration of DMSO was 1%. Cells were incubated in the presence of compounds for 24 hours after which expression of firefly luciferase reporter gene was quantified. Briefly, culture medium was removed and cells were lysed by addition of 100 μl of lysis buffer containing 125 mM Tris Phosphate ph 7.8, 10 mM EDTA, 5 mM DTT, 50% glycerol and 5% Triton. Plates were vortexed 10 min at 1300 rpm. Cell lysat was transferred in OpaqueWhite Assay 96 well Flat Bottom plates. 100 μl of luciferin solution 1× were added to each well. Luciferin solution contained 40 mM Tris Phosphate ph 7.8, 0.2 mM EDTA, 67 mM DTT, 2.14 mM MgCl2, 5.4 mM MgSO4, 4.7×10^−4 M luciferin, 5.3×10^−4 M ATP and 2.7×10^−4 M Acetyl co enzyme A. Luminescence was immediately measured with Berthold Microlumat Plus LB 96V luminometer with an integration of 0.5 sec. Inhibition was calculated using the formula: % inhibition=(1−(read/average max))*100. Average max=signal in absence of compound

First: CON=C(C1=C(O)C(=O)N(c2ccc(C)nn2)C1c1ccc(C(C)C)cc1)c1ccc(C)cc1 (mixture of isomers) [Example 53, 3-hydroxy-5-(4-isopropyl-phenyl)-4-(methoxyimino-p-tolyl-methyl)-1-(6-methyl-pyridazin-3-yl)-1,5-dihydro-pyrrol-2-one]
Second: Cc1ccc(N2C(=O)C(O)=C(C(=O)c3ccc(N(C)C)cc3)C2c2ccc(C(C)C)cc2)nn1 (stereo not shown) [Example 35, 4-(4-dimethylamino-benzoyl)-3-hydroxy-5-(4-isopropyl-phenyl)-1-(6-methyl-pyridazin-3-yl)-1,5-dihydro-pyrrol-2-one]
The EC50 of the first is 1.7-fold higher: 5 µM for the first, 3 µM for the second.

Going from Cc1ccc(C(=O)C2=C(O)C(=O)N(c3ccc(C#N)cn3)C2c2ccc(C(C)C)cc2)cc1 (stereo not shown) [Example 7, 6-[3-hydroxy-5-(4-isopropyl-phenyl)-4-(4-methyl-benzoyl)-2-oxo-2,5-dihydro-pyrrol-1-yl]-nicotinonitrile] to Cc1ccc(N2C(=O)C(O)=C(C(=O)c3ccc(C(C)C)cc3)C2c2ccc(C(C)C)cc2)nc1 (stereo not shown) [Example 44, 3-hydroxy-4-(4-isopropyl-benzoyl)-5-(4-isopropyl-phenyl)-1-(5-methyl-pyridin-2-yl)-1,5-dihydro-pyrrol-2-one], the EC50 falls from 9 µM to 2 µM (4.5-fold).

Cc1ccc(C(=O)C2=C(O)C(=O)N(c3cccnn3)C2c2ccc(C(C)C)cc2)cc1 (stereo not shown) [Example 9, 3-hydroxy-5-(4-isopropyl-phenyl)-4-(4-methyl-benzoyl)-1-pyridazin-3-yl-1,5-dihydro-pyrrol-2-one] and Cc1ccc(C(=O)C2=C(O)C(=O)N(c3ccc(C)nn3)C2c2cccc(C(C)C)c2)cc1 (stereo not shown) [Example 29, 3-hydroxy-5-(3-isopropyl-phenyl)-4-(4-methyl-benzoyl)-1-(6-methyl-pyridazin-3-yl)-1,5-dihydro-pyrrol-2-one] are within 1.5-fold of each other in EC50: 7 µM for the first, 6 µM for the second.

First: COc1ccc(C(=O)C2=C(O)C(=O)N(c3ccc(C)nn3)C2c2ccc(C(C)(C)C)cc2)cc1 (stereo not shown) [Example 10, 5-(4-tert-butyl-phenyl)-3-hydroxy-4-(4-methoxy-benzoyl)-1-(6-methyl-pyridazin-3-yl)-1,5-dihydro-pyrrol-2-one]
Second: Cc1ccc(N2C(=O)C(O)=C(C(=O)c3ccc(N(C)C)cc3)C2c2ccc(OC(F)(F)F)cc2)nn1 (stereo not shown) [Example 49, 4-(4-dimethylamino-benzoyl)-3-hydroxy-1-(6-methyl-pyridazin-3-yl)-5-(4-trifluoromethoxy-phenyl)-1,5-dihydro-pyrrol-2-one]
The EC50 of the first is 3-fold higher: 3 µM for the first, 1 µM for the second.

Cc1ccc(C(=O)C2=C(O)C(=O)N(c3ccc(C)nn3)C2c2ccc(-c3ccccc3)cc2)cc1 (stereo not shown) [Example 42, 5-biphenyl-4-yl-3-hydroxy-4-(4-methyl-benzoyl)-1-(6-methyl-pyridazin-3-yl)-1,5-dihydro-pyrrol-2-one] and Cc1ccc(N2C(=O)C(O)=C(C(=O)c3ccc(C(C)C)cc3)C2c2ccc(-c3ccccc3)cc2)nn1 (stereo not shown) [Example 45, 5-biphenyl-4-yl-3-hydroxy-4-(4-isopropyl-benzoyl)-1-(6-methyl-pyridazin-3-yl)-1,5-dihydro-pyrrol-2-one] are the same in EC50: 4 µM for the first, 4 µM for the second.

same assay, conditions: EC50_3DS_NS5B, Table 2, titled Replicon assay results

Cc1ccc(N2C(=O)C(O)=C(C(=O)c3ccc(C(F)(F)F)cc3)C2c2ccc(C(F)(F)F)cc2)nn1 (stereo not shown) [Example 95, 3-hydroxy-1-(6-methyl-pyridazin-3-yl)-4-(4-trifluoromethyl-benzoyl)-5-(4-trifluoromethyl-phenyl)-1,5-dihydro-pyrrol-2-one] and Cc1ccc(N2C(=O)C(O)=C(C(=O)c3ccc(C#N)cc3)C2c2ccc(OC(F)(F)F)cc2)nn1 (stereo not shown) [Example 176, 4-[4-hydroxy-1-(6-methyl-pyridazin-3-yl)-5-oxo-2-(4-trifluoromethoxy-phenyl)-2,5-dihydro-1H-pyrrole-3-carbonyl]-benzonitrile] cannot be ordered by EC50: < 10 µM for the first, < 10 µM for the second.

COc1ccc(C(=O)C2=C(O)C(=O)N(c3ccc(C)nn3)C2c2ccc(OC(C)C)cc2)cc1 (stereo not shown) [Example 100, 3-hydroxy-5-(4-isopropoxy-phenyl)-4-(4-methoxy-benzoyl)-1-(6-methyl-pyridazin-3-yl)-1,5-dihydro-pyrrol-2-one] and Cc1ccc(N2C(=O)C(O)=C(C(=O)c3ccc(OC(C)C)cc3)C2c2ccc(OC(C)C)cc2)nn1 (stereo not shown) [Example 109, 3-hydroxy-4-(4-isopropoxy-benzoyl)-5-(4-isopropoxy-phenyl)-1-(6-methyl-pyridazin-3-yl)-1,5-dihydro-pyrrol-2-one] cannot be ordered by EC50: < 10 µM for the first, < 10 µM for the second.

Cc1ccc(N2C(=O)C(O)=C(C(=O)c3ccc(C(C)C)cc3)C2c2ccc(CC(C)C)cc2)nn1 (stereo not shown) [Example 136, 3-hydroxy-5-(4-isobutyl-phenyl)-4-(4-isopropyl-benzoyl)-1-(6-methyl-pyridazin-3-yl)-1,5-dihydro-pyrrol-2-one] and Cc1ccc(N2C(=O)C(O)=C(C(=O)c3ccc(C(C)C)cc3)C2c2ccc(SC(C)C)cc2)nn1 (stereo not shown) [Example 173, 3-hydroxy-4-(4-isopropyl-benzoyl)-5-(4-isopropylsulfanyl-phenyl)-1-(6-methyl-pyridazin-3-yl)-1,5-dihydro-pyrrol-2-one] cannot be ordered by EC50: < 10 µM for the first, < 1 µM for the second.

Cc1ccc(N2C(=O)C(O)=C(C(=O)c3ccc(C(C)C)cc3)C2c2ccc(Br)cc2)nn1 (stereo not shown) [Example 172, 5-(4-bromo-phenyl)-3-hydroxy-4-(4-isopropyl-benzoyl)-1-(6-methyl-pyridazin-3-yl)-1,5-dihydro-pyrrol-2-one] and Cc1ccc(N2C(=O)C(O)=C(C(=O)c3ccc(C(C)C)cc3)C2c2ccc(Oc3cc(C)on3)cc2)nn1 (stereo not shown) [Example 185, 3-hydroxy-4-(4-isopropyl-benzoyl)-5-[4-(5-methyl-isoxazol-3-yloxy)-phenyl]-1-(6-methyl-pyridazin-3-yl)-1,5-dihydro-pyrrol-2-one] cannot be ordered by EC50: < 1 µM for the first, < 10 µM for the second.

Cc1ccc(N2C(=O)C(O)=C(C(=O)c3ccc(N4CCCC4)cc3)C2c2ccc(OC(C)(F)F)cc2)nn1 (stereo not shown) [Example 183, 5-[4-(1,1-difluoro-ethoxy)-phenyl]-3-hydroxy-1-(6-methyl-pyridazin-3-yl)-4-(4-pyrrolidin-1-yl-benzoyl)-1,5-dihydro-pyrrol-2-one] and Cc1ccc(N2C(=O)C(O)=C(C(=O)c3ccc(N4CCCC4)cc3)C2c2ccc(OC(F)(F)F)cc2)nn1 (stereo not shown) [Example 184, 3-hydroxy-1-(6-methyl-pyridazin-3-yl)-4-(4-pyrrolidin-1-yl-benzoyl)-5-(4-trifluoromethoxy-phenyl)-1,5-dihydro-pyrrol-2-one] cannot be ordered by EC50: < 10 µM for the first, < 10 µM for the second.

Cc1ccc(N2C(=O)C(OC(=O)C(C)C)=C(C(=O)c3ccc(C(C)C)cc3)C2c2ccc(OC(F)(F)F)cc2)nn1 (stereo not shown) [Example 186, Isobutyric acid 4-(4-isopropyl-benzoyl)-1-(6-methyl-pyridazin-3-yl)-2-oxo-5-(4-trifluoromethoxy-phenyl)-2,5-dihydro-1H-pyrrol-3-yl ester] and Cc1ccc(N2C(=O)C(O)=C(C(=O)c3ccc(C(C)C)cc3)[C@@H]2c2ccc(C(F)(F)F)nc2)nn1 [Example 194, 3-hydroxy-4-(4-isopropyl-benzoyl)-1-(6-methyl-pyridazin-3-yl)-5(S)-(6-trifluoromethyl-pyridin-3-yl)-1,5-dihydro-pyrrol-2-one] cannot be ordered by EC50: < 1 µM for the first, < 10 µM for the second.

In the case of Cc1ccc(N2C(=O)C(O)=C(C(=O)c3ccc(C(C)C)cc3)C2c2ccc(C(C)(F)F)nc2)nn1 (stereo not shown) [Example 187, 5-[6-(1,1-difluoro-ethyl)-pyridin-3-yl]-3-hydroxy-4-(4-isopropyl-benzoyl)-1-(6-methyl-pyridazin-3-yl)-1,5-dihydro-pyrrol-2-one], the EC50 is reported as < 1 µM.

same assay, conditions: Table 2, titled Replicon assay results; read-out: EC50_3DS_NS5B

With “5-[4-(1,1-difluoro-ethoxy)-phenyl]-3-hydroxy-4-(4-isopropyl-benzoyl)-1-(6-methyl-pyridazin-3-yl)-1,5-dihydro-pyrrol-2-one [Example 174]” the EC50 was < 10 µM.

same assay, conditions: read-out: EC50_3DS_NS5B; Table 2, titled Replicon assay results

For Cc1ccc(N2C(=O)C(O)=C(C(=O)c3ccc(OC(F)(F)F)cc3)C2c2ccc(C(C)C)cc2)cn1 (stereo not shown) [Example 97, 5-[3-hydroxy-5-(4-isopropyl-phenyl)-2-oxo-4-(4-trifluoromethoxy-benzoyl)-2,5-dihydro-pyrrol-1-yl]-2-methyl-pyridinium; chloride], the EC50 was < 10 µM.
